Results taken from ChEMBL document CHEMBL1201862, “PubChem BioAssay data set” (2004).
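Following 48 hours of exposure in 96-well plates, responses at five concentrations were used to interpolate endpoints linearly. The concentration for 50% growth inhibition is given as GI50.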 Calls of active or inactive are those of the source. Rule as the data show it: active = GI50 up to about 1.1 µM and inactive = higher.

What was measured:
Assay in all cases: growth of human tumour cells (NCI), 48 h
[1] = system: OVCAR-4
[2] = system: KM12
[3] = system: M14
[4] = system: U-251
[5] = system: SK-MEL-2
[6] = system: SF-295
[7] = system: HCT-116
[8] = system: LOX IMVI
[9] = system: MDA-N
[10] = system: MOLT-4
[11] = system: SK-MEL-28
[12] = system: Hs-578T
[13] = system: UO-31
[14] = system: NCI-H522
[15] = system: HCT-15
[16] = system: MCF7
[17] = system: 786-0
[18] = system: RPMI-8226
[19] = system: EKVX
[20] = system: OVCAR-3

| SMILES | GI50 [1] | GI50 [2] | GI50 [3] | GI50 [4] | GI50 [5] | GI50 [6] | GI50 [7] | GI50 [8] | GI50 [9] | GI50 [10] | GI50 [11] | GI50 [12] | GI50 [13] | GI50 [14] | GI50 [15] [µM] | GI50 [16] | GI50 [17] | GI50 [18] | GI50 [19] | GI50 [20] |
| --- | --- | --- | --- | --- | --- | --- | --- | --- | --- | --- | --- | --- | --- | --- | --- | --- | --- | --- | --- | --- |
| COc1ccc2c3c1OC1C(=O)C=CC4(CC2)N(C)CCC314 (centres undefined) | 24 µM (inactive) | 14.1 µM (inactive) | 16.6 µM (inactive) | 19.5 µM (inactive) | 16.3 µM (inactive) | 38 µM (inactive) | 14 µM (inactive) | 11.4 µM (inactive) | 15.8 µM (inactive) | 12.8 µM (inactive) | 22.2 µM (inactive) | 19.3 µM (inactive) | 16.3 µM (inactive) | 11 µM (inactive) | 18.9 | 20.2 µM (inactive) | 17.2 µM (inactive) | 17 µM (inactive) | 19.6 µM (inactive) | 19.4 µM (inactive) |
| CC(=O)O/N=C1\C=Cc2c(no[n+]2[O-])C1=O | 17.2 µM (inactive) | 18 µM (inactive) | 18.6 µM (inactive) | – | 17.8 µM (inactive) | > 100 µM (inactive) | 14.3 µM (inactive) | 18 µM (inactive) | 17.6 µM (inactive) | 10.4 µM (inactive) | 21.6 µM (inactive) | 20.8 µM (inactive) | 15.1 µM (inactive) | 17 µM (inactive) | 19.8 | 22.5 µM (inactive) | 19.3 µM (inactive) | 30 µM (inactive) | 17.3 µM (inactive) | 16.2 µM (inactive) |
| COC(=O)CC1(O)C=CC(=O)C=C1 [JACARANONE] | 3.82 µM (inactive) | 1.74 µM (inactive) | 4.18 µM (inactive) | 3.52 µM (inactive) | 4.63 µM (inactive) | 5.13 µM (inactive) | 9.77 µM (inactive) | 2.51 µM (inactive) | 6.35 µM (inactive) | 1.05 µM (active) | 2.38 µM (inactive) | 8.55 µM (inactive) | 2.96 µM (inactive) | 1.39 µM (inactive) | 3.01 | 2.97 µM (inactive) | 2.88 µM (inactive) | 5.45 µM (inactive) | 4.02 µM (inactive) | 3.91 µM (inactive) |
| O=[N+]([O-])c1ccc(NC(=S)Nc2ccccn2)cc1 | 37.5 µM (inactive) | 10.3 µM (inactive) | 46.8 µM (inactive) | 24.3 µM (inactive) | > 53.1 µM (inactive) | 27.4 µM (inactive) | 11.9 µM (inactive) | 16.4 µM (inactive) | 91.8 µM (inactive) | 16.9 µM (inactive) | > 95.3 µM (inactive) | 13.8 µM (inactive) | 26.2 µM (inactive) | 31.8 µM (inactive) | 18.8 | 12.4 µM (inactive) | 16.8 µM (inactive) | > 100 µM (inactive) | 8.45 µM (inactive) | 18.6 µM (inactive) |
